Legend:
[1] = tested on: knee cartilage injury site; assay: Knee cartilage defect model in wild-type mouse, safranin O staining; format: in vivo; details: wild-type mouse alone; 100 μg via tail vein twice a week until 4 weeks; 2, 4, 8 and 12 weeks; saline group only fibrous cartilage; FIG. 28
Description: A parabiosis model was created using a 6-week old male wild-type mouse and a 6-week old male P0-Cre::Rosa26-tdTomato mouse using the method described in 3. above. After completion of the blood chimera at 4 weeks after operation, a 0.5×0.5×0.5 mm cartilage defect was created in the knee joint of the wild-type mouse using a 0.5 mm-diameter hand-turned drill (manufactured by MEISINGER USA, L.L.C.). Shortly after the cartilage defect was created, 100 μg of HA1-44 peptide diluted with 100 μL of saline was administered from the tail vein and subsequently administered at the same dose twice a week until 4 weeks after operation. To the control group, 100 μL of saline was administered to each mouse from the tail vein on the same schedule as in the HA1-44 peptide administration group. A knee joint was collected 12 weeks after knee cartilage defect creation, then fixation with 4% paraformaldehyde (overnight), deashing with 0.5 M EDTA solution (3 days), and 30% sucrose replacement (1 day) were performed to create a frozen block. It was sliced at a thickness of 10 μm using a cryostat, and the distribution of Tomato-positive cells was analyzed by confocal microscopy. […]

[2] = tested on: CD45-negative, TER-119-negative, and PDGFRβ-positive cells; assay: Phase I clinical study, cells in circulating blood; format: in vivo; details: human, intravenous administration; peripheral blood mononuclear cell fractions before, 8 h and 24 h after administration; FIG. 33
Source text: Since PDGFRβ is a marker of human mesenchymal stem cells, it is believed that a marker (including a combination of multiple markers) defining iCFPα cells and vertebral CFPα cells in peripheral blood described herein, in which the term “PDGFRα” is replaced with the term “PDGFRβ”, will also be a marker (including a combination of multiple markers) defining EMSC (colony-forming PDGFR-positive cells in peripheral blood or in vertebra) in humans.

[3] = tested on: Pα^lin+ cells in grafted skin; assay: Parabiosis model (Pα-Cre::Rosa26-EYFP / wild-type) with epidermolysis bullosa mouse skin graft; format: in vivo; details: peptide given to the Pα-Cre::Rosa26-EYFP partner, epidermolysis bullosa skin grafted on the wild-type partner; FIG. 25
Source text: (§1) A parabiosis model was created using a 6-week old male wild-type mouse and a 6-week old male cell lineage tracing mouse with reference to Kamran P et al. J Vis Exp. 2013 Oct. 6; (80). Two mice were simultaneously subjected to general anesthetic induction with isoflurane, and positioned on a heat pad. The body side surfaces opposite to each other of the two mice were shaved, and the skin was removed approximately 5 mm wide from the elbow joint to the knee joint. The dorsal skin was continuously sutured with 5-0 VICRYL. The elbow joints and knee joints each opposite to each other were sutured with 3-0 VICRYL. The abdominal skin was also continuously sutured with 5-0 VICRYL. The mice were left on the heat pad until awakened from anesthesia. To avoid restricting activity, up to one pair were raised per cage, and scattered food was offered.
(§2) The present inventors have previously identified a peptide (HA1-44 peptide) consisting of the amino acid sequence of positions 1-44 (SEQ ID NO: 1) at the N-terminus of HMGB1 protein as a domain having the activity of mobilizing bone marrow-derived Pα-positive mesenchymal stem cells into peripheral blood. […] Furthermore, a cartilage injury was created to the knee joint of a wild-type mouse alone that was not a parabiosis model, then the HA1-44 peptide or saline was administered.

vertebral Pα cells = assay: Transcriptome and IPA pathway analysis of vertebral Pα cells after administration; format: in vivo, mouse; details: compared to control group (saline)
Description: RNA was extracted from the cell population, and an RNA-seq library was created according to Smart-seq2 protocol (Nature Protocols 9, 171-181 (2014) doi: 10.1038/nprot.2014.006). The obtained library was sequenced with Nextseq 500 (Illumina, Inc.) using a nextseq high output kit (37 bp pair end reads). Using bcl2fastq v2.17.1.14 of Illumina, Inc. with default parameters and optional --no-lane-splitting, conversion of base calls to fastq format and demultiplex were performed. Reads were trimmed using TrimGalore (http://www.bioinformatics.babraham.ac.uk/projects/trim_galore/), and mapping and counting (quantification) were performed using RSEM (Li et al., BMC Bioinformatics 12, 323 (2011); version STAR-2.5.2b). Differential expression analysis among samples was performed using DESeq2 (Love et al., Genome Biol. 15, 550 (2014)). Differentially Expressed Genes (DEGs) were uploaded to the Ingenuity Pathway Analysis (IPA) software (https://www.qiagenbioinformatics.com) to extract the most relevant biological pathways and functions to DEGs. Clustering analysis was performed using ICGS algorithm of AltAnalyze_v.2.1.0-Py based on log 2 converted values of 1-added TPM (Transcripts Per kilobase Million) counts obtained with RSEM (log 2 (TPM+1)). […]

[4] = tested on: colony-forming Pα cells in peripheral blood; assay: Colony assay of cultured peripheral blood after HA1-44 peptide administration; format: in vivo, mouse; details: FIG. 24
Description: The following method was used to recover cells from peripheral blood. Approximately 800 to 1000 μL of peripheral blood was collected from the heart under general anesthesia (using a 1 mL syringe containing heparin). To remove red blood cells, Hetasep (STEMCELL Technologies, Inc., Cat No. ST-07906) at equal amount of the collected blood was added, the mixture was centrifuged at 100 G for 2 minutes, and incubated at room temperature for 15 minutes, then the supernatant was recovered. The supernatant was subjected to the next experiment as a sample containing nuclear cells in peripheral blood.
The supernatant obtained by the above procedure (sample containing nucleated cells in peripheral blood) was seeded in a 6-well plate coated with collagen I (Corning Incorporated, Cat No. 356400), and cultured for 10 days under a condition of 37° C., 5% CO2, 5% 02 using a medium containing 1% L-glutamine (NACALAI TESQUE, INC.), 10 μM ROCK inhibitor (Y27632, Tocris Bioscience) and 1% penicillin/streptomycin (NACALAI TESQUE, INC.) in an expansion medium prepared using a MesenCult Expansion Kit (STEMCELL Technologies, Inc., Cat No. ST-05513) according to the manual of the kit (all concentrations described are final concentrations). The medium was replaced with a fresh medium twice a week during the culture period. […]

[5] = tested on: Pα^+ and Prx1^lin− cells in the skin graft; assay: Parabiosis model (Pα-H2B-GFP::Prx1-Cre::Rosa26-tdTomato / wild-type) with wild-type neonate skin graft; format: in vivo, mouse; details: peptide given to the reporter partner, neonate skin grafted on back of the wild-type partner; FIG. 26
Source text: as §1, §2

[6] = tested on: P0^lin+ cells at the cartilage injury site; assay: Parabiosis (P0-Cre::Rosa26-tdTomato / wild-type) and knee cartilage defect model; format: in vivo, mouse; details: 100 μg via tail vein, twice a week until 4 weeks; knee joint collected at 12 weeks; versus saline (no accumulation); FIG. 27
Source text: as §1
A parabiosis model was created using a 6-week old male wild-type mouse and a 6-week old male P0-Cre::Rosa26-tdTomato mouse using the method described in 3. above. After completion of the blood chimera at 4 weeks after operation, a 0.5×0.5×0.5 mm cartilage defect was created in the knee joint of the wild-type mouse using a 0.5 mm-diameter hand-turned drill (manufactured by MEISINGER USA, L.L.C.). […] It was sliced at a thickness of 10 μm using a cryostat, and the distribution of Tomato-positive cells was analyzed by confocal microscopy. […]

**Q.** How did the “cartilage regeneration at the cartilage injury site” value [1] turn out when “HA1-44 peptide: peptide consisting of amino acid sequence of positions 1-44 (MGKGDPKKPRGKMSSYAFFVQTCREEHKKKHPDASVNFSEFSKK) at the N-terminus of A-box of HMGB1 protein” was run?
**A.** hyaline cartilage was regenerated

**Q.** What about the “CD45-negative, TER-119-negative, and PDGFRβ-positive cells in circulating blood” value [2] of the same substance?
**A.** increase

**Q.** And the “Pα^lin+ cells expressing type 7 collagen in regenerated epithelial tissue of the skin graft” value [3]?
**A.** presence of Pα^lin+ cells expressing type 7 collagen was confirmed

**Q.** And the “pathways associated with EIF2 signaling, regulation of eIF4 and p70S6K signaling, and mTOR signaling” value (vertebral Pα cells; FIG. 31)?
**A.** activated

**Q.** What about the “expression of cell death-related genes” value (vertebral Pα cells; FIG. 32) of the same substance?
**A.** suppressed

**Q.** And the “number of colonies obtained by culturing peripheral blood” value ([4]; lineage tracing mice, versus control group (saline administration))?
**A.** more colonies than peripheral blood in the control group

**Q.** And the “markers of the colonies obtained (Pα, Prx1 lineage)” value ([4]; peripheral blood of lineage tracing mice given the peptide)?
**A.** All of the colonies were Pα-positive, and the majority of which were Prx1 lineage-negative

**Q.** And the “Pα^+ and Prx1^lin− cells in the skin graft” value [5]?
**A.** presence of Pα^+ and Prx1^lin− cells in the skin graft was confirmed

**Q.** What about the “accumulation of P0^lin+ cells at the cartilage injury site” value [6] of the same substance?
**A.** accumulation of P0^lin+ cells was confirmed

From patent US20260062677A1, “ECTODERMAL MESENCHYMAL STEM CELLS AND METHOD FOR PRODUCING SAME” (STEMRIM INC., priority 2017, published 2026)
